The text below walks through data of PubChem BioAssay (NCI).

What all share (assay): NCI anticancer screen, dose series, 48 h
Experiment [1] deals with HT29 colon.
Experiment [2] concerns HL-60(TB) leukemia.
Experiment [3] deals with SNB-75 CNS.
For experiment [4], the system named is CAKI-1 renal.
Experiment [5] relates to HOP-62 NSCLC.
In experiment [6] the test system is SF-268 CNS.
The test system of experiment [7] is KM12 colon.
Experiment [8] relates to NCI-H522 lung.
The subject of experiment [9] is RPMI-8226 leukemia.
Experiment [10] relates to COLO 205 colon.

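Compound exposure: 48 hours, 5 concentrations, 96-well plates. Definition used: TGI = concentration required for complete inhibition of growth.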

Turning to `O=C(NNS(=O)(=O)c1ccc(Br)cc1)c1ccc(Cl)cc1NC(=O)C12CC3CC(CC(C3)C1)C2`, the TGI was determined as 27.2 µM in experiment [1]; 67.9 µM in [2]; 28 µM in experiment [3]; 56.6 µM in experiment [4]; 47.8 µM in experiment [5]; 24.9 µM in [6]. In addition, the TGI in [7] is 85.7 µM; in experiment [8], 25.1 µM; in experiment [9], 24 µM; in experiment [10] it was 24.5 µM.

On to `O=S(c1ccccc1)C1CC2CC3(CCC21O)OCCO3` (stereo not given), for which the TGI in [1], in [2], in experiment [3], in experiment [4], in experiment [5] and in [6] was above 100 µM in each case. Besides, the TGI in [7], in experiment [8], in experiment [9] and in experiment [10] was above 100 µM throughout.

Consider `COc1cc(NS(C)(=O)=O)ccc1NCc1cnc2ccc3[nH]cccc3c12`, for which the TGI is 73.9 µM in [1]; 18.3 µM in experiment [2]; 39.3 µM in experiment [3]; above 72.7 µM in [4]; 55.6 µM in [5]; 55.3 µM in experiment [6]. The TGI was 37.6 µM in experiment [7], 39.9 µM in [8], 29.8 µM in [9] and 31.3 µM in experiment [10].

With `Nc1ncnc2c1ncn2C1OC(CO)C(O)C1NS(=O)(=O)c1ccccc1` (stereo not given), the TGI in [1], in [2], in experiment [3], in [4], in [5] and in experiment [6] was above 100 µM each time. Moreover, the TGI in experiment [7], in [8], in [9] and in experiment [10] was above 100 µM each time.

Turning to `C[N+](C)=c1ccc2nc3c(ccc4ccccc43)oc-2c1`, the TGI in experiment [1] worked out at 29.6 µM; in experiment [2] it was 6.32 µM; in experiment [3], 32.5 µM; in [4], 28.9 µM; in experiment [5] it was 34.2 µM; in experiment [6], 29.7 µM. Moreover, the TGI in [7] was 32.2 µM; in experiment [8], 8.07 µM; in experiment [9], above 64.7 µM; in experiment [10] it was above 57.9 µM.

For the compound `CC1(C)OC2CC3COC(=O)C3CC2O1` (stereo not given), the TGI in experiment [1], in experiment [2], in [3], in experiment [4], in [5] and in experiment [6] was above 100 µM throughout. Moreover, the TGI in experiment [7], in experiment [8], in [9] and in experiment [10] was above 100 µM in each case.

For the compound `C/C=C/c1cc2c(c(=O)o1)C(=O)[C@@H](O)[C@H](C)O2`, the TGI in experiment [1] was found to be 44.6 µM; in [2] it was 54.4 µM; in [3] it was 39 µM; in [4] it was 31.3 µM; in experiment [5] it was 60.8 µM; in experiment [6], 30 µM. Further, the TGI in experiment [7] was 31 µM; in experiment [8], 20.4 µM; in experiment [9], 34.5 µM; in experiment [10], 25.7 µM.

As to `Nc1ccc2nc(Nc3ccc(Cl)c(Cl)c3)cnc2c1`, the TGI in experiment [1] was 36.9 µM; in experiment [2], 31.6 µM; in experiment [3], above 100 µM; in experiment [4] it was above 100 µM; in experiment [5], 36.2 µM; in [6], 37.8 µM. Besides, the TGI in [7] is 32.3 µM; in experiment [8], 21.6 µM; in experiment [9] it was 54.4 µM; in experiment [10], 34.9 µM.

In the case of `COC1=CC(=O)C2C(C1=O)[C@@H]1c3ccccc3OC(C)(C)[C@H]21` (stereo not given in full), the TGI in experiment [1] was 99.4 µM; in [2], 33.8 µM; in experiment [3], above 100 µM; in [4], 31 µM; in experiment [5], above 100 µM; in experiment [6], 88.6 µM. The TGI is above 100 µM in experiment [7], 27.7 µM in [8], 72.2 µM in [9] and 35.1 µM in [10].

Take `CCCCCCCCCCCCCCCCNCC(O)CN` (stereo not given): the TGI is 4.44 µM in experiment [1]; 4.93 µM in experiment [2]; 11 µM in experiment [3]; 30 µM in experiment [4]; 33.4 µM in experiment [5]; 12.9 µM in [6]. Moreover, the TGI in [7] worked out at 3.66 µM; in experiment [8], 33.2 µM; in experiment [9] it was 4.52 µM; in [10], 3.81 µM.

On to `c1ccc(C(c2cccc3c2ccc2ccccc23)C(c2ccccc2)c2cccc3c2ccc2ccccc23)cc1` (stereo not given), for which the TGI in [1], in experiment [2], in experiment [3], in experiment [4], in experiment [5] and in [6] was above 100 µM in each case. The TGI in experiment [7], in experiment [8], in [9] and in [10] was above 100 µM throughout.

For `CC(C)NCC(O)c1ccc(O)c2ncccc12` (stereo not given), the TGI in [1], in [2], in experiment [3], in experiment [4], in experiment [5] and in [6] was above 100 µM in each case. For the same compound, the TGI was above 100 µM in [7], above 100 µM in [8], above 100 µM in [9] and 36.4 µM in [10].

As for `CC(=O)NNC(=S)/N=C\c1c(O)c2ccccc2oc1=O`, the TGI in [1], in [2], in [3], in [4], in experiment [5] and in experiment [6] was above 100 µM each time. Also, the TGI in experiment [7], in experiment [8], in [9] and in experiment [10] was above 100 µM each time.

Regarding `COc1ccc(C(=O)c2c(-c3ccccc3NC(=O)C(F)(F)F)[nH]c3ccccc23)cc1`, the TGI in experiment [1] was determined as 16.5 µM; in experiment [2], 13.6 µM; in [3], 7.89 µM; in [4] it was 28.6 µM; in experiment [5], 22.1 µM; in experiment [6], 28.7 µM. Further, the TGI stood at 21.8 µM in experiment [7], 22.8 µM in experiment [8], 27.2 µM in [9] and 16.1 µM in [10].
